# Assay results reported in patent US20070249555A1, “Use of Atp Analogues for Treatment of Cardiovascular Diseases” (INSTITUT NATIONAL DE LA SANTE ET DE LA RECHERCHE MEDICALE …, priority 2004, published 2007).
# What was measured:
# human P2Y13 receptor = target: T1, human P2Y13 receptor (Homo sapiens, UniProt Q9BPV8); assay: forskolin-induced cAMP formation in hP2Y13-CHO-K1 cells; assay type: cell-based; details: forskolin 3 μM; for maximal inhibition (decrease) of forskolin-induced cAMP accumulation / IC50: hP2Y13-CHO-K1 cells, 12 min; for IC50: read-out: IC50 for inhibition of forskolin-induced cAMP accumulation
# T1 construct: expressed in transfected cells
# T1 sequence (Q9BPV8 22-354 limits assumed): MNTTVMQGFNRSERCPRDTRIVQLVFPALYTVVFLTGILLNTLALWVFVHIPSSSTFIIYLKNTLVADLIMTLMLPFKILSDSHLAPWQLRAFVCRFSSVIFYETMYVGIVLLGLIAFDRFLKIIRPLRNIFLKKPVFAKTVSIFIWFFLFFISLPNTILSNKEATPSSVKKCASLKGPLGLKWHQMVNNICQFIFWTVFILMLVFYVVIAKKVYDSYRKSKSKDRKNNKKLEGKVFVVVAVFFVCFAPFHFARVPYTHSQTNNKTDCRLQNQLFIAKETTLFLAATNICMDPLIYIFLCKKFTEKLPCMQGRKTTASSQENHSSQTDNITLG
# Description: The cells were incubated with various concentrations of these agents for 12 min as described in “Materials and Methods”. Data are expressed in % on the value with forskolin alone and presented as mean ±S.D. of triplicates in one representative experiment out of 4.
# AR-C69931MX and ADP (at increasing concentrations) were added simultaneously with forskolin to hP2Y13-CHO-K1 cells for a 12 min incubation period. Data are expressed in % of the value with forskolin alone and presented as mean ±S.D. of triplicates in one representative experiment out of 2. (▴): ADP without AR-C69931MW; (●): ADP+AR-C69931MX (100 nM).
# The cyclic AMP assays was performed on CHO-K1 cell lines expressing recombinant P2Y receptors as follows.
# The CHO-K1 cell line stably expressing the human P2Y13 receptor has been previously described (Communi et al., J Biol Chem, 2001, 276: 41479-85). The plasmid of human P2Y12 receptor (hP2Y12-pEFIN5) was obtained from Euroscreen (Gosselies, Belgium) and was stably transfected into CHO-K1 cells by using the FuGENETM6 transfection reagent (Roche Applied Science, Mannheim, Germany). Transfected cells were selected using G418 (400 μg/ml). The hP2Y13-CHO-K1 and HP2Y12-CHO-K1 cells were grown in Ham'S F12 cell culture medium (Invitrogen-France) supplemented with fetal bovine serum (10%, v/v), penicillin (100 units/ml), streptomycin (100 μg/ml) and G418 (400 μg/ml).
# The stably transfected CHO-K1 cells (200,000 cells/dish) were seeded on 35-mm diameter cell culture dishes in complete medium one day before the experiment. Cells were incubated for 2 hours in Krebs-Ringer-Hepes (KRH) buffer (124 mM NaCl, 5 mM KCl, 1.25 mM MgSO4, 1.45 mM CaCl2, 1.25 mM KH2PO4, 25 mM HEPES, pH 7.4, and 8 mM D-glucose) containing 25 μM Rolipram. Nucleotides were then added in presence of 3 μM forskolin, usually for a 12 min incubation (37° C.). The reactions were stopped by aspiration of the incubation medium and addition of 1 ml of 0.1 M HCl. The lysates were then vacuum dried and re-suspended in an appropriate volume of water. Cyclic AMP was quantified by 125l radioimmunoassay, as described in Communi et al., J Biol Chem, 2001, 276: 41479-85.
# plain CHO-K1 cells = assay: forskolin-induced cAMP accumulation in plain CHO-K1 cells (control); assay type: cell-based; details: untransfected control cells
# human P2Y12 receptor = human P2Y12 receptor (Homo sapiens, UniProt Q9H244); assay: forskolin-induced cAMP formation in hP2Y12-CHO-K1 cells; assay type: cell-based
# Description: FIG. 2C: Effect ADP (▴), AR-C69931MX (●) and ADP in presence of AR-C69931MX (100 nM) (▪) on forskolin (FSK: 3 μM)-induced cAMP formation in hP2Y12-CHO-K1 cells. The cells were incubated with various concentrations of these agents for 12 min. Data are expressed in % of the value with forskolin alone and presented as mean ±S.E.M. of 3 (ADP) or 2 (AR-C69931MX) independent experiments, each performed in triplicates.
# The stably transfected CHO-K1 cells (200,000 cells/dish) were seeded on 35-mm diameter cell culture dishes in complete medium one day before the experiment. […] Cyclic AMP was quantified by 125l radioimmunoassay, as described in Communi et al., J Biol Chem, 2001, 276: 41479-85.
# [1] = system: liver of P2Y1-/- C57BL/6J mice; assay: in situ TG-HDL2 endocytosis by perfused liver of P2Y1-/- mouse; assay type: in vivo; details: liver perfused in situ 10 min at 37° C., AR-C69931MX 10 μM
# Description: FIG. 4C: The liver from P2Y1^−/−C57BL/6J male mice (25 weeks old) was perfused in situ for 10 minutes at 37° C. in HBSS medium with 75 μg/ml of ^125I-TG-HDL2 in the presence of PBS (a) or AR-C69931MX 10 μM (b). ^125I radioactivity associated with the livers was determined (n>3); (*) (p<0.05) (unpaired t-test).
# The perfused mouse liver experiments were carried out on C57BL/6J male mice, 8 weeks old, (Charles River Cie) or P2Y1^−/− mouse, 25 weeks old. Mouse were anesthetized by intraperitoneal injections of 200 μl ketamine hydrochloride (Merial)-xylazine hydrochloride 2% (Bayer)-PBS (1:1:3 v/v). […] The livers were perfused in situ for 10 minutes at 37° C. in HBSS medium containing 75 μg/ml of ^125I-TG-HDL2 (5000 cpm/ng of proteins) or ^3H-cholesteryl-ether-TG-HDL2 (15000 dpm/mg of cholesteryl ester), with PBS apolipoprotein A-1 (ApoA-1, 10 μg/ml) or AR-C69931MX (10 μM).
# Livers were extensively washed at 4° C. in PBS and radioactivity associated per […] of liver was counted, (n=7 per group). Values represent means ±SEM, with p<0.05 (unpaired t-test).
# Sequence of human P2Y12 receptor (Q9H244 whole entry, the tested form may be a part): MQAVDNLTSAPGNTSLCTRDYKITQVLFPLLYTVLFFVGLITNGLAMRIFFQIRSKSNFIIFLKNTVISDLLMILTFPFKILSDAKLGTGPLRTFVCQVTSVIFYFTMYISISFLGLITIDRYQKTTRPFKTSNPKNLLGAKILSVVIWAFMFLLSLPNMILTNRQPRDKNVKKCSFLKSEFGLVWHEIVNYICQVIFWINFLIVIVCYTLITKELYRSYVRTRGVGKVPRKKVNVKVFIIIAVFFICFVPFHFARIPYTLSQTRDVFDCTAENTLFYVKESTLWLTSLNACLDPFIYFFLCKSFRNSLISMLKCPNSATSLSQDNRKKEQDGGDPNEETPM
behaviour at P2Y13 receptor (modulation of ADP effect on cAMP) (human P2Y13 receptor; AR-C69931MX 100 nM with increasing ADP),"effect per se on cAMP accumulation by forskolin (human P2Y12 receptor; forskolin 3 μM, 12 min)",Compound,maximal inhibition (decrease) of forskolin-induced cAMP accumulation (human P2Y13 receptor) [%],IC50 (human P2Y13 receptor) [nM],effect on cAMP accumulation in plain CHO-K1 cells (plain CHO-K1 cells),effect on ADP inhibition of cAMP accumulation (human P2Y12 receptor; AR-C69931MX 100 nM with ADP),increase of TG-HDL2 internalization by the liver above the control [1] [%]
,,"Nc1ncnc2c1ncn2[C@@H]1O[C@H](COP(=O)(O)OP(=O)(O)O)[C@@H](O)[C@H]1O [ADP, adenosine diphosphate, reference compound]",70,0.6 ± 0.2,,,
partial agonist,no effect,"CSCCNc1nc(SCCC(F)(F)F)nc2c1ncn2[C@@H]1O[C@H](COP(=O)(O)OP(=O)(O)C(Cl)(Cl)P(=O)(O)O)[C@@H](O)[C@H]1O [AR-C69931MX, N-[2-(methylthio)ethyl]-2-[(3,3,3-trifluoropropyl)thio]-5′-adenylic acid, monoanhydride with dichloromethylenebisphosphonic acid]",25,0.5 ± 0.1,no effect,shifted the ADP inhibition to higher concentrations,38
